The results in this text go back to PMC8187479, “Sugar phosphate activation of the stress sensor eIF2B” (Nature Communications, 2021).

By Kd is commonly meant the concentration at which binding is half-saturated. Lower therefore signals a tighter complex.

The target of assay [1] is T1, phospho-eIF2α binding to eIF2B (Homo sapiens, UniProt P49770+Q14232+Q9UI10).
T1 construct: endogenous in cells; host or cells: HEK293T with FLAG knock-in at the endogenous eIF2Bβ locus, treated with thapsigargin; lysate, anti-FLAG IP
Briefly: Phospho-eIF2α co-immunoprecipitation with FLAG-tagged eIF2B. To be noted: lysate of thapsigargin-treated HEK293T eIF2Bβ-FLAG cells; ligand 2 h at 4 °C. As to the method:
HEK293T cells endogenously expressing eIF2Bβ with a C-terminal FLAG tag were maintained in DMEM High Glucose (Corning CellGro) supplemented with 10% FBS (Gibco) and antibiotic-antimycotic (Gibco). Upon reaching 90% confluency, cells were treated with either DMSO or 100 nM thapsigargin (Sigma) for 4 h. Cells were harvested and lysed in 25 mM HEPES, 150 mM KCl, 1% NP-40, 1 mM EDTA, pH 7.4 + Complete protease inhibitor cocktail (Roche) and PhosStop (Roche) on ice for 20 min. Lysates were cleared by centrifugation at 18,000 × g, 20 min, 4 °C, and transferred to Eppendorf tubes containing anti-FLAG M2 magnetic beads (Sigma). Mixtures were incubated overnight at 4 °C. To test the effect of ligands, these were added to the mixtures and incubated for an additional 2 h at 4 °C. Beads were washed three times with lysis buffer, eluted with 1× LDS buffer (Invitrogen), and subjected to SDS-PAGE followed by Western Blot with the indicated antibodies.

The target of assay [2] is T2, eIF2B decamer in eIF2Bα^E198K HEK293T lysate (Homo sapiens, UniProt P49770+Q14232+Q9UI10, E198K).
T2 construct: endogenous in cells; host or cells: HEK293T, CRISPR knock-in eIF2Bα E198K (homozygous), lysate
The assay can be described thus: Sucrose gradient centrifugation, eIF2B complex assembly, eIF2Bα E198K HEK293T lysate. In kind it is biochemical. The procedure: WT or eIF2Bα mutant HEK293T cells were harvested and lysed in 50 mM HEPES, 400 mM KCl, 1 mM DTT, 4 mM Mg(OAc)2, pH 7.5 + 0.5% Triton-X-100 + EDTA-free protease inhibitor cocktail (Roche) on ice for 30 min. Lysates were cleared by centrifugation at 48,000 × g, 4 °C for 30 min. 100 μL of each cleared lysate was loaded onto a 5–20% sucrose gradient prepared in a 13 × 51 mm ultracentrifuge tube using a Gradient Station (Biocomp) and centrifuged in a SW55 Ti rotor at 152,000 × g, 4 °C for 12 h. After centrifugation, 24 × 200 μL fractions were manually collected from the top to bottom of each gradient. Each fraction was subjected to methanol/chloroform precipitation and SDS-PAGE followed by Western Blot with the indicated antibodies. Blots were imaged on a ChemiDoc MP (Bio-Rad), and band intensities were quantified using the instrument’s Image Lab software. Each value was then divided by total intensity obtained across all fractions to determine percent enrichment of each subunit in each fraction.

For assay [3], the target named is T3, eIF2Bα^E198K (Homo sapiens, UniProt Q14232, E198K).
T3 sequence (Q14232 1-305 E198K): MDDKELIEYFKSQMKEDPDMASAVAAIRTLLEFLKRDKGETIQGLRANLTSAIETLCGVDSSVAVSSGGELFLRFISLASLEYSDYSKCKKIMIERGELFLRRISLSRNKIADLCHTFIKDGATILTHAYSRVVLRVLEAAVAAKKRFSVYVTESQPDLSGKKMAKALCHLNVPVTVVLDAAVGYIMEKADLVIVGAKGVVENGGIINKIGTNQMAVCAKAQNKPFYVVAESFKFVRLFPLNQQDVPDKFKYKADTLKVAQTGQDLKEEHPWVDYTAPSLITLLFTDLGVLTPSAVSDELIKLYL
The assay can be described thus: Isothermal titration calorimetry, eIF2Bα E198K. In kind it is binding. To be noted: ITC. The procedure: Interactions between recombinant protein and sugar phosphates were conducted with a MicroCal PEAQ-ITC (Malvern Panalytical Inc.). Experiments were performed in 25 mM HEPES, 150 mM NaCl, pH 7.5 at 20 °C. […] The final titration curves were fitted using MicroCal ITC data analysis software, assuming a single binding site per monomer.

Assay [4] deals with T4, eIF2B (Homo sapiens, UniProt P49770+Q14232+Q9UI10).
T4 construct: made in house; host or cells: eIF2Bα: E. coli BL21(DE3)
Briefly: eIF2B GEF activity assay, targeted, recombinant wild-type eIF2B. To be noted: dose-response with eIF2B; 95% CI 2.2-5.3 μM; read-out: EC50 of GEF activation (GDP release t1/2). The class given is biochemical. The procedure: Bodipy-FL-GDP-loaded eIF2 was used as a substrate for recombinant eIF2B. The assay was performed in 384-well plates. Reactions were read on a SpectraMax i3x plate reader (Molecular Devices) using the instrument’s Softmax Pro software with the following parameters: plate temperature = 25 °C; excitation wavelength = 485 nm (15 nm width); emission wavelength = 535 nm (25 nm width); read duration = 30 min at 45 s intervals. Data were analyzed in Prism. GDP release half-lives were calculated by fitting single-exponential decay curves.
For unbiased screening, MIDAS metabolite libraries at 10 mM stock concentration were dispensed into wells of the assay plate using an Echo Acoustic Liquid Handler (Labcyte). In a final assay volume of 10 μL/well, the following conditions were kept constant: 25 nM Bodipy-FL-GDP-loaded eIF2, 4 nM phospho-eIF2, 0.1 mM GDP, 1 mg/mL BSA, 1 nM eIF2B, 10 μM metabolite. A single well was run for each metabolite. For targeted experiments with recombinant wild-type and mutant eIF2Bα, the following conditions were used: 50 nM Bodipy-FL-GDP-loaded eIF2, 0.1 mM GDP, 1 mg/ml BSA, 20 nM eIF2B. For targeted experiments with HEK293T lysates, the following conditions were used: 50 nM Bodipy-FL-GDP-loaded eIF2, 0.1 mM GDP, 1 mg/ml BSA, 0.1 or 0.3 mg/ml lysates.

T4 sequence (Q14232 whole entry): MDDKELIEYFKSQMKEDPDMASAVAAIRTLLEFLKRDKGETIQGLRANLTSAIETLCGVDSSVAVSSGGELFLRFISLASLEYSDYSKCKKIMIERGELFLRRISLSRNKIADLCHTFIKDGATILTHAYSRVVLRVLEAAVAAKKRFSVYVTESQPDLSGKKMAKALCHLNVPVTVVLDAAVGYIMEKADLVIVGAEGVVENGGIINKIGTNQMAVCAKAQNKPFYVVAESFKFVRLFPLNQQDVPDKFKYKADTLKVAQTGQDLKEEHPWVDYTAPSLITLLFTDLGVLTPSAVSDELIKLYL
T4 sequence (P49770 whole entry): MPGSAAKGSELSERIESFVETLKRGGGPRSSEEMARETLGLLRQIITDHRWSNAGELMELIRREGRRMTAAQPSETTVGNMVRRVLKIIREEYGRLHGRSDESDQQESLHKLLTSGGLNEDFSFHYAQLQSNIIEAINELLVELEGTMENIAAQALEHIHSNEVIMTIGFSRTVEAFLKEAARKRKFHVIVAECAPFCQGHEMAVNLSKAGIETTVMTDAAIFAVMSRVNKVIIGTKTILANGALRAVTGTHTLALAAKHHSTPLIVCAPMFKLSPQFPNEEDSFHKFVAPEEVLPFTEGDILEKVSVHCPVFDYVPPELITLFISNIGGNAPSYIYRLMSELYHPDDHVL
T4 sequence (Q9UI10 whole entry): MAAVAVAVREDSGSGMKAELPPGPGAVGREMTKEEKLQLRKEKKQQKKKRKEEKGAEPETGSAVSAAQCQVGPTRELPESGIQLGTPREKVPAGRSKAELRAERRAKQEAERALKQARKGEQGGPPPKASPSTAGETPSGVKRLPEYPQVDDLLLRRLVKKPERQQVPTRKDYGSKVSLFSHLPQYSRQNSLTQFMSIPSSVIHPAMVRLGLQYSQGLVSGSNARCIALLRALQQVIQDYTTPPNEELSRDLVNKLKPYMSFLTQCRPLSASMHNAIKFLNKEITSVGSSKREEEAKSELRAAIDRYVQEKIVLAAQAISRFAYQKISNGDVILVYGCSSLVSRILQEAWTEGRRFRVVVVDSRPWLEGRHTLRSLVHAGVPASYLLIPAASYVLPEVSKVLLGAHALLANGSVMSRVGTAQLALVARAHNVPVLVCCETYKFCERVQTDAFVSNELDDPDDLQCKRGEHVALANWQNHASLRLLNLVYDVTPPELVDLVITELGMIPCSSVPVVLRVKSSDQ
T4 sequence (Q9NR50 whole entry partner): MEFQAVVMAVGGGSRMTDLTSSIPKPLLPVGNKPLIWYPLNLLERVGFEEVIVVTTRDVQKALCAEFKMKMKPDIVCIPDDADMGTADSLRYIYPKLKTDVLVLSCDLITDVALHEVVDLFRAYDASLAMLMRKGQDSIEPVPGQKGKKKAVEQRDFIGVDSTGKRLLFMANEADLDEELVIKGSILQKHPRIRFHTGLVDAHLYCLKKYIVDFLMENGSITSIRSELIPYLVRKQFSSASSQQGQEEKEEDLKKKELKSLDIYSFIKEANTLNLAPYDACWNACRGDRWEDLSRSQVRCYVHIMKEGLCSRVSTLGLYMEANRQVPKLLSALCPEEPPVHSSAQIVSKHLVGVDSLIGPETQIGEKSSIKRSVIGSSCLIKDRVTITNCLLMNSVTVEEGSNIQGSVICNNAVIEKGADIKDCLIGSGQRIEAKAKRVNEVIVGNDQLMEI
T4 sequence (Q13144 whole entry partner): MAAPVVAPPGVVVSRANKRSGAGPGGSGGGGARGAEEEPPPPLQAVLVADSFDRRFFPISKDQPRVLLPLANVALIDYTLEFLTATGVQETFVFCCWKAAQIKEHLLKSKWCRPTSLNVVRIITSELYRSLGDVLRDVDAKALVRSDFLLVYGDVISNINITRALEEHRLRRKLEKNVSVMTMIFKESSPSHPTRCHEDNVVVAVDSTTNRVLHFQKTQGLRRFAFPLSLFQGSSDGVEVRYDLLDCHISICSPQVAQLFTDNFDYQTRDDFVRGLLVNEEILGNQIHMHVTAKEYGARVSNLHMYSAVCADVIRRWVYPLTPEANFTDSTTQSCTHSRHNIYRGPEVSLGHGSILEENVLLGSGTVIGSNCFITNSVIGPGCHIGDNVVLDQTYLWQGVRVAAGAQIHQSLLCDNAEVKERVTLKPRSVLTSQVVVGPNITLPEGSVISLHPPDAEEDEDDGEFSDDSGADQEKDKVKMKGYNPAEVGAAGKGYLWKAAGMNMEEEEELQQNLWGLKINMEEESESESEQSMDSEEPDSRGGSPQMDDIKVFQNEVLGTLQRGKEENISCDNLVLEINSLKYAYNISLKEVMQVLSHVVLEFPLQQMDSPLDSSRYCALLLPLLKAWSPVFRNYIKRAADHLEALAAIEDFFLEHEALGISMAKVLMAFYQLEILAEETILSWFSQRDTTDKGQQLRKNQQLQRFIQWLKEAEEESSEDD
T2 sequence (P49770 whole entry, one chain of several): as the sequence (P49770 whole entry) above
T2 sequence (Q9UI10 whole entry, one chain of several): as the sequence (Q9UI10 whole entry) above
T2 sequence (Q9NR50 whole entry partner, one chain of several): as the sequence (Q9NR50 whole entry partner) above
T2 sequence (Q13144 whole entry partner, one chain of several): as the sequence (Q13144 whole entry partner) above
T1 sequence (P49770 whole entry): as the sequence (P49770 whole entry) above
T1 sequence (Q9UI10 whole entry): as the sequence (Q9UI10 whole entry) above
T1 sequence (Q14232 whole entry): as the sequence (Q14232 whole entry) above
T1 sequence (Q9NR50 whole entry partner): as the sequence (Q9NR50 whole entry partner) above
T1 sequence (Q13144 whole entry partner): as the sequence (Q13144 whole entry partner) above

On to `O=C(CO)[C@@H](O)[C@H](O)[C@H](O)COP(=O)(O)O` [F6P, fructose-6-phosphate], for which the “co-immunoprecipitation of phospho-eIF2α with FLAG-tagged eIF2B” value in assay [1] is listed as “did not decrease the interaction”. Besides, the eIF2B decamer formation entry in assay [2] was “unresponsive”. Besides, in assay [3] (eIF2Bα E198K), the Kd came to 99 ± 12 µM. Moreover, the “reduction of affinity of eIF2Bα E198K” value in assay [3] (compared with wild-type eIF2Bα) was 11 fold. In addition, the EC50 in assay [4] came to 3.4 µM.
